Earlier results on 1 compound are cited in patent US10632137B2, “Composition containing ivermectin for exterminating Clavinema mariae infection on Sebastes schlegeli” (REPUBLIC OF KOREA (National Institute of Fisheries Science), priority 2017, dated 2020).

The conditions of this data set: humans, after oral administration; cited from earlier work.

Turning to `CC[C@H](C)[C@H]1O[C@]2(C=C[C@@H]1C)C[C@@H]1C[C@@H](C/C=C(\C)[C@@H](O[C@H]3C[C@H](OC)[C@@H](O[C@H]4C[C@H](OC)[C@@H](O)[C@H](C)O4)[C@H](C)O3)[C@@H](C)/C=C/C=C3\CO[C@@H]4[C@H](O)C(C)=C[C@@H](C(=O)O1)[C@]34O)O2` [avermectin], the “Time to maximum plasma concentration” value is 4 h and the half-life entry is “about 16 hours”.
